Entries after “also recorded” stand apart in the source; their conditions may differ. Where a name gives a salt, the structure may show the parent alone. Square brackets hold non-standard residues; d marks the D form. Peptide text beside a SMILES is read from it. * marks the point of attachment. Sta = CC(C)C[C@H](N)[C@@H](O)CC(=O)O; Isovaleryl = CC(C)CC(=O)*
Experiments:
pepsin = conditions: cited from earlier work
porcine pepsin A = porcine pepsin A (Sus scrofa, UniProt P00791); type: binding; conditions: 100nM pepstatin-Alexa647 probe, 0.03U/ul porcine pepsin A, 37.5% DMSO, 0.1 M HCl pH 1
[1] = cited from earlier work
[2] = tested on: pepsin-mediated laryngeal damage; experiment: Laryngopharyngeal reflux mouse model; type: in vivo, female Jackson A/J mice
porcine pepsin = porcine pepsin (Sus scrofa, UniProt P00791); experiment: Fluorescence polarization peptic activity assay with casein-Alexa647 substrate; type: biochemical; conditions: for inhibition of pepsin (IC50): 200nM casein-Alexa647 probe, 0.01U/μL pepsin, 5% DMSO, 0.1 M HCl pH 1
[3] = aerosol with saline (solvent) instillation
[4] = gavage with saline (solvent) instillation

porcine pepsin A, sequence (P00791 60-385): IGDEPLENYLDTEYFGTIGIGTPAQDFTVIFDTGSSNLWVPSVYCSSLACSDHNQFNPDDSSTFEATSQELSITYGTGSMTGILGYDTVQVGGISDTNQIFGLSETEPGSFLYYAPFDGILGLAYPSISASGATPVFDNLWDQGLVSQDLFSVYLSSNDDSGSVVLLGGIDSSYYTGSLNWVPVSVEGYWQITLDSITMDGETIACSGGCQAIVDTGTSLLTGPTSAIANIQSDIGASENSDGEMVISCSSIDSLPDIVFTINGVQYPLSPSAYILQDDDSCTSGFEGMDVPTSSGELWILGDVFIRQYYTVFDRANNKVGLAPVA
porcine pepsin, sequence (P00791 60-385): as above

| SMILES | affinity for pepsin (pepsin) | binding to pepsin (porcine pepsin A) | known side effects and interactions [1] | laryngeal epithelial histology/reactivity elicited by the drug itself [2, 3] | laryngeal epithelial histology/reactivity elicited by the drug itself [2, 4] | apoptosis in laryngeal epithelium ([2]; aerosol, inhaled mass 12mg/kg/day darunavir, pepsin-pH7 instillation) | inhibition of pepsin (IC50) (porcine pepsin) | IC50 for pepsin compared with the other inhibitors (porcine pepsin; comparison among the HIV protease inhibitors tested) |
| --- | --- | --- | --- | --- | --- | --- | --- | --- |
| CC(C)CC(=O)N[C@H](C(=O)N[C@H](C(=O)N[C@@H](CC(C)C)[C@@H](O)CC(=O)N[C@@H](C)C(=O)N[C@@H](CC(C)C)[C@@H](O)CC(=O)O)C(C)C)C(C)C [pepstatin, pepstatin A] (Isovaleryl-VV[Sta]A[Sta]-OH) | sub-nanomolar |  |  |  |  |  |  |  |
| CC(C)c1nc(CN(C)C(=O)N[C@H](C(=O)N[C@@H](Cc2ccccc2)C[C@H](O)[C@H](Cc2ccccc2)NC(=O)OCc2cncs2)C(C)C)cs1 [ritonavir] |  | bound | minimal side effects (diarrhea, nausea and vomiting) |  |  |  |  |  |
| CC(C)CN(C[C@@H](OP(=O)(O)O)[C@H](Cc1ccccc1)NC(=O)O[C@H]1CCOC1)S(=O)(=O)c1ccc(N)cc1 [fosamprenavir] |  |  |  | normal histology | normal histology |  |  |  |
| CC(C)CN(C[C@@H](O)[C@H](Cc1ccccc1)NC(=O)O[C@H]1CO[C@H]2OCC[C@H]21)S(=O)(=O)c1ccc(N)cc1 [darunavir, darunavir ethanolate] |  | bound |  | absent | mild reactivity (rare intraepithelial lymphocytes) | no apoptosis was observed | inhibited pepsin at low micromolar concentrations; also recorded: low micromolar range | lowest IC50 |
| CC(C)CN(C[C@@H](O)[C@H](Cc1ccccc1)NC(=O)O[C@H]1CCOC1)S(=O)(=O)c1ccc(N)cc1 [amprenavir] |  | bound | minimal side effects (diarrhea, nausea and vomiting) |  |  |  | inhibited pepsin at low micromolar concentrations; also recorded: low micromolar range |  |
| CC(C)(C)NC(=O)[C@@H]1C[C@@H]2CCCC[C@@H]2CN1C[C@@H](O)[C@H](Cc1ccccc1)NC(=O)[C@H](CC(N)=O)NC(=O)c1ccc2ccccc2n1 [saquinavir, saquinavir mesylate] |  | bound | QT prolongation, heart block, high blood lipids and liver problems |  |  |  | inhibited pepsin at low micromolar concentrations; also recorded: low micromolar range |  |

Source: PMC9732152 (The Laryngoscope, 2022)
